Consider one compound from patent US20250134853A1, “COMPOUNDS AND METHODS FOR USING GALLOYLATED POLYPHENOLS TO TREAT DISEASES MEDIATED BY THIOL ISOMERASES” (Beth Israel Deaconess Medical Center, Inc., priority 2023, published 2025).

Entries after “also recorded” stand apart in the source; their conditions may differ.

Series [1] has as its target T1, ERp57 (Homo sapiens, UniProt P30101).
T1 construct: FLAG; made in house; host or cells: Escherichia coli Origami B (DE3)
T1 sequence (P30101 25-505): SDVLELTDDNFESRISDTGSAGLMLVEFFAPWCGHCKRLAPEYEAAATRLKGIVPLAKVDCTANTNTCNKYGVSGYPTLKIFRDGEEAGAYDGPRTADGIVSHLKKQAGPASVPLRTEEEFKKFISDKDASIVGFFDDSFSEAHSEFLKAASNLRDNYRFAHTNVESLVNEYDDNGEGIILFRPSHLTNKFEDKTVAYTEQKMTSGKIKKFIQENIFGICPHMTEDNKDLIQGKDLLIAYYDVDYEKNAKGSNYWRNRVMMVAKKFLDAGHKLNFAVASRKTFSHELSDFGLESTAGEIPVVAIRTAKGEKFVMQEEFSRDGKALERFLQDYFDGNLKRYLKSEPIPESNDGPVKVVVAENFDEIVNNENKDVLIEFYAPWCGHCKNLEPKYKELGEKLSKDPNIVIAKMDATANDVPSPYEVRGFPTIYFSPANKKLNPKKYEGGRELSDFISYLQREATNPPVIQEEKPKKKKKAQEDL
Briefly: Di-eosin-GSSG disulfide reductase assay, ERp57. It is filed as biochemical. The source says: (§1) Recombinant protein purification. Recombinant ‘double-tagged’ (streptavidin-binding protein-tagged and FLAG-tagged) full-length PDI, ERp57, recombinant His-tagged full-length ERp5, ERp72, PDI domain fragments, and PDI mutant were cloned into a pET-15b vector at the NdeI and BamHI sites and transformed into Escherichia coli Origami B (DE3) cells (EMD Chemicals). The recombinant proteins were expressed and isolated by affinity chromatography with complete His-Tag purification resin (Roche Applied Science) or Pierce High-Capacity Streptavidin Agarose beads and purified on a Superdex 200 (GE Healthcare).
(§2) Di-eosin-GSSG disulfide reductase assay. […] Any fraction with a fold change >5 was kept.

Series [2] concerns the target T2, ERp72 (Homo sapiens, UniProt P13667).
T2 construct: recombinant His-tagged full-length ERp5, ERp72; His-tag; made in house; host or cells: Escherichia coli Origami B (DE3)
T2 sequence (P13667 21-645): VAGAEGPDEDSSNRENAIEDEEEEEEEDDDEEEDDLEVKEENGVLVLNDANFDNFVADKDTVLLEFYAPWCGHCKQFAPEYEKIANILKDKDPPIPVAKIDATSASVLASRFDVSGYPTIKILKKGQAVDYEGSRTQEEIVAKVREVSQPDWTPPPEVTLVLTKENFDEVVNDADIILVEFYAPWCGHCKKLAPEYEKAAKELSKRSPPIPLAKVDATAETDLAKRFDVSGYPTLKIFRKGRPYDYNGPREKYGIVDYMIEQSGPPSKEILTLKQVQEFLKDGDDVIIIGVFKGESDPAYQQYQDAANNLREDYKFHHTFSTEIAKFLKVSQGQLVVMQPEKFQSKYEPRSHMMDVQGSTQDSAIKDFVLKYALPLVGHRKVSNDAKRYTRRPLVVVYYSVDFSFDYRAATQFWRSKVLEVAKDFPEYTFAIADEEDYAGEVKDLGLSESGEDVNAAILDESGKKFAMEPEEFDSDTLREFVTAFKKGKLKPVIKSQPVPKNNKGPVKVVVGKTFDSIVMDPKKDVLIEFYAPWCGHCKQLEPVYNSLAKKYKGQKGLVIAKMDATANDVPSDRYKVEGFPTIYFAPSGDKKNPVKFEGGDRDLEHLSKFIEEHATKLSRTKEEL
The series is described as follows: Di-eosin-GSSG disulfide reductase assay, ERp72. It is filed as biochemical.
Description: as §1, §2

Series [3] has as its target ERp46 (Homo sapiens, UniProt Q8NBS9). The series is described as follows: Di-eosin-GSSG disulfide reductase assay, ERp46. In kind it is biochemical.
Description: as §2

Series [4] has as its target T3, PDI (Homo sapiens, UniProt P07237).
T3 construct: FLAG; made in house; host or cells: Escherichia coli Origami B (DE3)
The series is described as follows: Insulin reductase assay. The following applies: PGHG incubated with PDI for 15 minutes. In kind it is biochemical.
Description: Insulin reductase assay. Insulin was prepared by mixing 12.5 mg/mL insulin in 50 mM Tris-HCl, pH 8. 1 M HCl was carefully added to drop the pH to 2.0 for solution clarification. Once the solution clarifies, 1 M NaOH was added to rapidly adjust the pH back to 8.0. The solution was then adjusted to 1.5 mM (10 mg/mL) with 50 mM Tris-HCl, aliquoted and stored in −20° C. until use. 2× concentrations of thiol isomerases were prepared (final concentrations as indicated in each assay) and mixed with 1.2 mM DTT (final 0.3 mM) and 0.4 mM insulin (final 0.1 mM) using a thiol isomerase activity assay buffer. Insulin precipitation from enzyme-mediated reduction was assayed in 96-well clear bottom plates at 650 nm absorption.

The subject of series [5] is PDI domain fragments (a, a′, ab, abb′, b′xa′). Briefly: Di-eosin-GSSG assay on isolated PDI domain fragments. It is filed as biochemical. The following applies: a, ab, b′xa′, abb′ fragments; PGHG at 10 μM.
Description: Di-eosin-GSSG disulfide reductase assay. The probe di-eosin glutathione disulfide, di-eosin-GSSG, was prepared by incubating 100 μM of GSSG with 1 mM of eosin isothiocyanate in 100 mM potassium phosphate containing 2 mM EDTA (pH 7.4), at 25° C. overnight in the dark. The mixture was passed down a PD-10 column and different fractions were collected. A fold change of fluorescence (Ex: 520 nm, Em: 550 nm) was calculated using samples subjected to either vehicle or 20 mM of DTT. Any fraction with a fold change >5 was kept. Using a stock of 10 mM eosin isothiocyanate, a standard curve was generated and concentration of samples were determined accordingly. Di-eosin-GSSG cleavage of purified thiol isomerases and PDI domains was monitored in a 96-well fluorescence plate format. PDI, CGXC-PDI variants, ERp5, ERp57, ERp46 and PDI domains were assayed at 50 nM in the presence or absence of the indicated small molecules. The assay included a thiol isomerase assay buffer (39 mM KH2PO4, 61 mM K2HPO4, 2 mM EDTA, 5 M DTT, pH 7.4) and 150 nM of the di-eosin-GSSG probe. The increase in fluorescence was determined for 60 min by excitation at 520 nm and emission at 550 nm in a Synergy Biotek 4. The reduction of 150 nM di-eosin-GSSG by 5 μM DTT in the presence or absence of mentioned small molecule or proteins served as a negative control.
Series [6] addresses T3, PDI. The series is described as follows: SDS-PAGE molecular weight shift (alkylation of PDI free thiols). It is filed as biochemical. The source says:
FIG. 5 is an image of gel showing detection of PDI free thiol by the labeling of acetamido maleimidylstilbene disulfonic acid (AMS), which shifts the protein to a higher apparent molecular weight.
4-acetomido-4′-maleimidylstilbene-2,2′ disulfonic acid (AMS), which shifts the mass of the protein by 500 Da for every cysteine alkylated, was used as a positive control. […] N-ethylmaleimide (NEM) was used for a control experiment because covalent alkylation of the free thiols will expectedly prevent PDI activity (FIG. 6A).

For series [7], the system named is SARS-CoV-2. Briefly: Vero E6-based viral replication assay. It is filed as cell-based.
The subject of series [8] is PDI mutants in which His55 and His399 were replaced. The following applies: 10 μM PGHG, 15 min.
Description: Data represented as mean±SEM.
Di-eosin-GSSG disulfide reductase assay. […] Di-eosin-GSSG cleavage of purified thiol isomerases and PDI domains was monitored in a 96-well fluorescence plate format. PDI, CGXC-PDI variants, ERp5, ERp57, ERp46 and PDI domains were assayed at 50 nM in the presence or absence of the indicated small molecules. The assay included a thiol isomerase assay buffer (39 mM KH2PO4, 61 mM K2HPO4, 2 mM EDTA, 5 M DTT, pH 7.4) and 150 nM of the di-eosin-GSSG probe. The increase in fluorescence was determined for 60 min by excitation at 520 nm and emission at 550 nm in a Synergy Biotek 4. The reduction of 150 nM di-eosin-GSSG by 5 μM DTT in the presence or absence of mentioned small molecule or proteins served as a negative control.
The target of series [9] is T4, SARS-CoV-2 M^pro (Severe acute respiratory syndrome coronavirus 2, UniProt P0DTD1). The following applies: literature values (Table 2); read-out: SARS-CoV-2 M^pro inhibition; cited from earlier work.
The target of series [10] is T4, SARS-CoV-2 M^pro. The following applies: cited from earlier work.
Series [11] deals with bleeding following tail clip. The series is described as follows: Tail clip assay of hemostasis. The following applies: 25 μg/g PGHG, intraperitoneal injection.

T3 sequence (P07237 18-508): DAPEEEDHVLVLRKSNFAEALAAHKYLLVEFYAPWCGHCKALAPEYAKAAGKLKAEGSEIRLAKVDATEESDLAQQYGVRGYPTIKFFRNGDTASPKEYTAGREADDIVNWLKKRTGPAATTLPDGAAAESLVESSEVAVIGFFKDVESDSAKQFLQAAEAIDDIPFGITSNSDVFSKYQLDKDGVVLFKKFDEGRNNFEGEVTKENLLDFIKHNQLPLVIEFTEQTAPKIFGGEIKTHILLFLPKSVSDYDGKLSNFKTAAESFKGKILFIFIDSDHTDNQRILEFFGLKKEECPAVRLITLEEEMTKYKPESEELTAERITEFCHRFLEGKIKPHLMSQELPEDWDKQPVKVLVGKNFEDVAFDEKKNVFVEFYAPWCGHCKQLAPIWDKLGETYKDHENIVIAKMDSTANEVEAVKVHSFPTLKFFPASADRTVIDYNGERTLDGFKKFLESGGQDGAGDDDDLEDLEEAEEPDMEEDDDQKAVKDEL
Sequence of ERp46 (Q8NBS9 33-432, species assumed): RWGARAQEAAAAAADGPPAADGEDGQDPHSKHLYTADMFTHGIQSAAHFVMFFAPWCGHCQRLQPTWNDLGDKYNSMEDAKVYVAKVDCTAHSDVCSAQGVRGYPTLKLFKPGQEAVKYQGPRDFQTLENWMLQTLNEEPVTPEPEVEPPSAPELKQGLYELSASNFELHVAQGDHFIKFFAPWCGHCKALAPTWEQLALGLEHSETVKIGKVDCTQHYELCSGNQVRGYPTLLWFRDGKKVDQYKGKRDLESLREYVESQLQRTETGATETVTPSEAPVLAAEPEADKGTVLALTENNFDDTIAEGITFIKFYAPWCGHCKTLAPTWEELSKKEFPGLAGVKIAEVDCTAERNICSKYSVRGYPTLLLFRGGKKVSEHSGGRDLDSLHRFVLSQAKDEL

`O=C(O[C@@H]1[C@@H](O)[C@H](Oc2cc(O)c3c(c2)O[C@H](c2ccccc2)CC3=O)O[C@@H]2COC(=O)c3cc(O)c(O)c(O)c3-c3c(cc(O)c(O)c3O)C(=O)O[C@@H]12)c1cc(O)c(O)c(O)c1` [PGHG, pinocembrin 7-O-(3″-galloyl-4″,6″-(S)-hexahydroxydiphenoyl)-beta-D-glucose]: the IC50 in series [1] was 3.3 µM; in series [2], 7.8 µM; in [3], 3.9 µM; in series [7], 4.9 µM; in series [9] it was 6.5 µM. Also, in series [4], the “inhibition of PDI in insulin reductase assay (in words)” value was “low micromolar range”. The “inhibition of isolated PDI fragments” value in [5] was “inhibited a and a′ fragments as well as ab, b′xa′ and abb′x fragments; also recorded: inhibited activity of all fragments including the isolated the a and a′ domains”. Also, in series [6], the “shift in molecular weight of PDI in SDS polyacrylamide gel” value was “did not induce a shift in molecular weight”. In series [8], the “susceptibility of His55/His399 PDI mutants (Ala, Asp, Arg)” value was “mutants were resistance to PGHG”. For the same compound, in series [10], the “Modeling shows gallic acid interaction with His41 or Glu166” value is “His41; Glu166”. Also, in series [11], the “time to cessation of bleeding” value is given as “did not prolong the time to cessation of bleeding; also recorded: did not prolong the time required for bleeding to subside”. Further, the total blood loss entry in series [11] was “nor the total amount of blood loss; also recorded: nor did it significantly affect total blood loss”.
